Laboratory results from patent US20220402900A1, “1,2,4-OXADIAZOL-5-ONE DERIVATIVES FOR THE TREATMENT OF CANCER” (Basilea Pharmaceutica International AG, priority 2019, published 2022).

Columns and labels:
[1] = target: T1, human TEAD2 (amino acids 217-447) (Homo sapiens, UniProt Q15562); experiment: Thermal shift assay (TSA); type: binding; settings: 3 μM recombinant TEAD2, compound 7 μM, shift vs DMSO control
T1 construct: human TEAD2 (amino acids 217-447); His-tag (N); purchased Proteros biostructures PR-0365; host or cells: E. coli
Method: The thermal shift assay (TSA) was utilized to characterize target engagement in vitro based on ligand-dependent thermal stabilization of the protein. N-terminally His-tagged human TEAD2 (amino acids 217-447) expressed and purified from E. coli was purchased from Proteros biostructures (cat no. PR-0365). The melting reactions were performed in white, 96 well qPCR plates (Roche Diagnostics, cat. no. 04 729 692 001) in 20 mM HEPES pH 7, 100 mM NaCl in the presence of 4×SYPRO orange (Sigma, cat. no. S5692). Each well contained 3 μM recombinant TEAD2 and either DMSO (control) or experimental compounds at a final concentration of 7 μM. The total volume was 20 μL and the final DMSO concentration was 1%. The plate was sealed and analyzed in a LightCycler 480 II (Roche Diagnostics) by continuously reading the fluorescence using the 465-580 nm filter set while heating from 25° C. to 95° C. using a linear gradient of 1° C./min. Melting temperatures were determined by numerical differentiation using the LightCycler Thermal Shift Analysis software (Roche Diagnostics). The shifts in melting temperature caused by experimental compounds compared to the control are expressed as ΔTm (Table 2).

[2] = system: TEAD reporter gene activity; experiment: TEAD reporter gene assay (MCF7 TEAD reporter cell line); type: cell-based; settings: Homo sapiens; TEAD luciferase reporter in MCF7 cells, 24 hours; read-out: IC50 TEAD RGA (converted)
Description: A TEAD reporter cell line was purchased from BPS Bioscience (cat. no. 60618). It contains the firefly luciferase gene under control of TEAD responsive elements stably integrated into the human breast cancer MCF7 cells. In proliferating cells, a basal level of unphosphorylated YAP/TAZ resides in the nucleus and drives the TEAD-dependent expression of the luciferase reporter. The cells were cultivated as recommended by the supplier. Inhibition of TEAD reporter gene activity by experimental compounds was measured using white, clear-bottom, 96 well cell culture plates (Greiner Bio-One, cat. no. 655098). The cells were seeded at a density of 20,000 cells per well in 100 μL growth medium and the plates were incubated overnight at 37° C. with 5% CO2 prior to treatment. Experimental compounds were serially diluted in DMSO to 200× the desired final concentrations. 0.5 μL aliquots of DMSO or the test samples were then mixed into the wells and the cells were further incubated for 24 hours. Luminescence was then measured on a Synergy 4 reader (BioTek) using the ONE-Glo Luciferase Assay System (Promega, cat. no. E6120) according to the manufacturer's instructions. Relative inhibition values were calculated by normalizing the raw data using DMSO-treated cells (0% inhibition) and wells devoid of cells (100% inhibition). IC50 values were calculated by fitting concentration-response data to a sigmoidal 4-parameter logistic model.

[3] = system: TEAD-dependent PD marker CTGF; experiment: MSTO-211H tumor xenograft pharmacodynamic (PD) study; type: in vivo, mice
Method: Female CB. 17 SCID mice (Charles River) were subcutaneously inoculated with 5×10^6 MSTO-211H tumor cells (ATCC, CRL-2081) in 0.1 mL of PBS mixed with matrigel (1:1) (BD Biosciences). Randomization into two groups was performed when the mean tumor size reached approximately 300-400 mm^3, after which drug treatments were started.
Animals were dosed daily orally at the specified concentrations of the compound of Example 2 or the compound of Example 11 using an oral-gavage needle. The dosing volume was 10 mL/kg per mouse, with a volume adjusted to the mouse body weight. The vehicle control (water containing 0.5% hydroxypropyl methyl cellulose (Sigma-Aldrich, #H9262) and 0.5% Tween 80 (Sigma-Aldrich, #P1754)) was administered in the same way.
PD marker analysis was performed on tumors that were collected from animals 3 hours after the last dose was given. […] The tumor protein lysates were prepared and analyzed using standard Western blot procedures. […] For quantitative PCR (qPCR) analyses, RNA was converted into cDNA following manufacturer's instructions (SuperScript™ III First-Strand Synthesis for RT-PCR, Invitrogen, #18080-051). […] The increase in fluorescence was analyzed with the instrument-specific software (Roche, LightCycler® 480 II), and a mean quantity was calculated from duplicate or triplicate PCRs for each sample using the ΔΔCt method.

[4] = system: NCI-H226 xenografts; experiment: NCI-H226 tumor xenograft efficacy study; type: in vivo; settings: day 62, NCI-H226 xenografts in BALB/c nude mice
Method: Female BALB/c nude mice (GemPharmatech Co., Ltd) were subcutaneously inoculated with 10×10^6 NCI-H226 tumor cells (ATCC, CRL-5826) in 0.2 mL of PBS mixed with matrigel (1:1) (Corning). Randomization into six groups (n=8 animals per group) was performed when the mean tumor size reached approximately 150 (100-200) mm^3, after which drug treatments were started. Animals were dosed daily orally at the specified concentrations using an oral-gavage needle. The dosing volume was 10 mL/kg per mouse, with a volume adjusted to the mouse body weight. The vehicle control (water containing 0.5% hydroxypropyl methyl cellulose (Sigma-Aldrich, #H3785) and 0.5% Tween 80 (Sigma-Aldrich, #P1754) was administered in the same way. Tumor volumes were measured twice weekly in two dimensions using a caliper, and the volume was expressed in mm^3 using the formula “V=(L×W^2)/2”, where V is the tumor volume, L is the tumor length (the longest tumor dimension) and W is the tumor width (the longest tumor dimension perpendicular to L).
Animal protocols were reviewed and approved by the Institutional Animal Care and Use Committee (IACUC) at CrownBio. During the study, the care and use of animals was conducted in accordance with the regulations of the Association for Assessment and Accreditation of Laboratory Animal Care (AAALAC).

T1 sequence (Q15562 217-447): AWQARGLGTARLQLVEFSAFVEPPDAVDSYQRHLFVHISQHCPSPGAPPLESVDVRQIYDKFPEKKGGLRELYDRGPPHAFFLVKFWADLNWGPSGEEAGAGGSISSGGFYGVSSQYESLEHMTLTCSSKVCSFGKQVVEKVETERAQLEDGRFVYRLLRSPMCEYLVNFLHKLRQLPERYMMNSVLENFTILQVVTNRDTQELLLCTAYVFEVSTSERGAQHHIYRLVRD

ΔTm at 7 µM [1] [°C] | IC50 [2] [nM] | SMILES | decrease of CTGF mRNA to (normalized to actin mRNA) ([3]; 250 mg/kg po qd×5, MSTO-211H tumors isolated 3 hours after last dose) [%] | final ΔT/C ([4]; 50 mg/kg po qd) | final ΔT/C ([4]; 125 mg/kg po qd) | final ΔT/C ([4]; 250 mg/kg po qd) | decrease of CTGF mRNA to (normalized to actin mRNA) ([3]; 250 mg/kg po qd×8, MSTO-211H tumors isolated 3 hours after last dose) [%]
6.7 | 39 | COc1ccnc(Nc2ccc(C(F)(F)F)cc2)c1-c1noc(=O)[nH]1 [Example 11, 3-[4-methoxy-2-[4-(trifluoromethyl)anilino]-3-pyridyl]-4H-1,2,4-oxadiazol-5-one] | 32 | – | – | – | –
10.6 | 41 | O=c1[nH]c(-c2nccnc2Nc2ccc(C(F)(F)F)cc2)no1 [Example 2, 3-[3-[4-(trifluoromethyl)anilino]pyrazin-2-yl]-4H-1,2,4-oxadiazol-5-one] | – | 0.27 | 0.13 | 0.017 | 28
1.9 | 507 | O=c1[nH]c(-c2c(OCCO)ccnc2Nc2ccc(Cl)cc2)no1 [Example 48, 3-[2-(4-chloroanilino)-4-(2-hydroxyethoxy)-3-pyridyl]-4H-1,2,4-oxadiazol-5-one] | – | – | – | – | –
10.2 | 28 | Cc1cnc(Nc2ccc(C(F)(F)F)cc2)c(-c2noc(=O)[nH]2)n1 [Example 32, 3-[6-methyl-3-[4-(trifluoromethyl)anilino]pyrazin-2-yl]-4H-1,2,4-oxadiazol-5-one] | – | – | – | – | –
13.4 | 109 | O=c1[nH]c(-c2nccnc2Nc2ccc(C3(C(F)(F)F)CC3)cc2)no1 [Example 40, 3-[3-[4-[1-(trifluoromethyl)cyclopropyl]anilino]pyrazin-2-yl]-4H-1,2,4-oxadiazol-5-one] | – | – | – | – | –
6 | 81 | O=c1[nH]c(-c2c(OCCF)ccnc2Nc2ccc(C(F)(F)F)cc2)no1 [Example 65, 3-[4-(2-fluoroethoxy)-2-[4-(trifluoromethyl)anilino]-3-pyridyl]-4H-1,2,4-oxadiazol-5-one] | – | – | – | – | –
6 | 1350 | Nc1cnc(Nc2ccc(C(F)(F)F)cc2)c(-c2noc(=O)[nH]2)c1 [Example 45, 3-[5-amino-2-[4-(trifluoromethyl)anilino]-3-pyridyl]-4H-1,2,4-oxadiazol-5-one] | – | – | – | – | –
11.5 | 90 | O=c1[nH]c(-c2nccnc2Nc2ccc(OC(F)(F)F)cc2)no1 [Example 3, 3-[3-[4-(trifluoromethoxy)anilino]pyrazin-2-yl]-4H-1,2,4-oxadiazol-5-one] | – | – | – | – | –
9.9 | 39 | O=c1[nH]c(-c2cccnc2Nc2ccc(C(F)(F)F)cc2)no1 [Example 1, 3-[2-[4-(trifluoromethyl)anilino]-3-pyridyl]-4H-1,2,4-oxadiazol-5-one] | – | – | – | – | –
